In PubChem BioAssay AID248 (DTP/NCI, 2004):
Values joined by “and” are separate entries in the source; they are usually repeats but may differ in a detail not shown here. Equal entries are not always repeated. Toxic doses and inconclusive results are not listed. Rule as the data show it: active = T/C of 150% or more; inactive = T/C below 125%.

Test system: L1210 leukemia ip in BDF1 mice, survival T/C
Assay: NCI In Vivo Anticancer Drug Screen. Data for tumor model L1210 Leukemia (intraperitoneal) in B6D2F1 (BDF1) mice
Conditions: endpoint: mean survival time, higher = longer survival
Method in brief: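 Tumor cells were implanted, animals were treated, and survival was followed. The result divides the treated measurement by the vehicle-control measurement.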

[1] = dose: 100.0 mg/kg/injection, schedule: Q04DX002 (ip), vehicle: saline with Tween-80
[2] = dose: 200.0 mg/kg/injection, schedule: Q04DX002 (ip), vehicle: saline with Tween-80
[3] = dose: 400.0 mg/kg/injection, schedule: Q04DX002 (ip), vehicle: saline with Tween-80
[4] = dose: 100.0 mg/kg/injection, schedule: Q04DX003 (ip), vehicle: saline
[5] = dose: 200.0 mg/kg/injection, schedule: Q04DX003 (ip), vehicle: saline
[6] = dose: 400.0 mg/kg/injection, schedule: Q04DX003 (ip), vehicle: saline
[7] = dose: 100.0 mg/kg/injection, schedule: Q01DX009 (ip), vehicle: saline
[8] = dose: 200.0 mg/kg/injection, schedule: Q01DX009 (ip), vehicle: saline
[9] = dose: 400.0 mg/kg/injection, schedule: Q01DX009 (ip), vehicle: saline
[10] = dose: 25.0 mg/kg/injection, schedule: Q01DX009 (ip), vehicle: water
[11] = dose: 50.0 mg/kg/injection, schedule: Q01DX009 (ip), vehicle: water
[12] = dose: 100.0 mg/kg/injection, schedule: Q01DX001 (ip), vehicle: saline
[13] = dose: 100.0 mg/kg/injection, schedule: Q01DX009 (ip), vehicle: Klucel (hydroxypropylcellulose) (HPC)
[14] = dose: 100.0 mg/kg/injection, schedule: Q01DX009 (ip), vehicle: water
[15] = dose: 200.0 mg/kg/injection, schedule: Q01DX001 (ip), vehicle: saline
[16] = dose: 200.0 mg/kg/injection, schedule: Q01DX009 (ip), vehicle: Klucel (hydroxypropylcellulose) (HPC)
[17] = dose: 400.0 mg/kg/injection, schedule: Q01DX009 (ip), vehicle: Klucel (hydroxypropylcellulose) (HPC)
[18] = dose: 100.0 mg/kg/injection, schedule: Q04DX003 (ip), vehicle: Klucel (hydroxypropylcellulose) (HPC)
[19] = dose: 200.0 mg/kg/injection, schedule: Q04DX003 (ip), vehicle: Klucel (hydroxypropylcellulose) (HPC)
[20] = dose: 400.0 mg/kg/injection, schedule: Q04DX003 (ip), vehicle: Klucel (hydroxypropylcellulose) (HPC)
[21] = dose: 100.0 mg/kg/injection, schedule: Q01DX001 (ip), vehicle: Klucel (hydroxypropylcellulose) (HPC)
[22] = dose: 200.0 mg/kg/injection, schedule: Q01DX001 (ip), vehicle: Klucel (hydroxypropylcellulose) (HPC)
[23] = dose: 25.0 mg/kg/injection, schedule: Q04DX002 (ip), vehicle: Klucel (hydroxypropylcellulose) (HPC)
[24] = dose: 50.0 mg/kg/injection, schedule: Q04DX002 (ip), vehicle: Klucel (hydroxypropylcellulose) (HPC)
[25] = dose: 100.0 mg/kg/injection, schedule: Q04DX002 (ip), vehicle: Klucel (hydroxypropylcellulose) (HPC)
[26] = dose: 100.0 mg/kg/injection, schedule: Q04DX003 (ip), vehicle: saline with Tween-80
[27] = dose: 200.0 mg/kg/injection, schedule: Q04DX003 (ip), vehicle: saline with Tween-80
[28] = dose: 400.0 mg/kg/injection, schedule: Q04DX003 (ip), vehicle: saline with Tween-80

Measured: T/C

Nc1ncnc2c1CP(=O)(c1ccccc1)CC2 (stereo not given)
inactive: [1] 103 % of control | [2] 103 % of control | [3] 103 % of control

C=CCc1cnc(SCc2ccccc2)[nH]c1=O
inactive: dose: 100.0 mg/kg/injection, schedule: Q01DX001 (ip), vehicle: gum acacia 101 % of control | dose: 200.0 mg/kg/injection, schedule: Q01DX001 (ip), vehicle: gum acacia 91 % of control | dose: 400.0 mg/kg/injection, schedule: Q01DX001 (ip), vehicle: gum acacia 94 % of control

CC(=O)NC1COC(O)C(O)C1O (stereo not given)
inactive: [4] 94 % of control | [5] 101 % of control | [6] 101 % of control

Cc1ccc(CNC(=O)Nc2ccccc2)c(C)c1
inactive: dose: 100.0 mg/kg/injection, schedule: Q01DX009 (ip), vehicle: other 103 % of control | dose: 200.0 mg/kg/injection, schedule: Q01DX009 (ip), vehicle: other 91 % of control | dose: 400.0 mg/kg/injection, schedule: Q01DX009 (ip), vehicle: other 101 % of control

O=C(CBr)OCCCS(=O)(=O)O
inactive: [7] 96 % of control | [4] 105 % of control | [8] 113 % of control | [5] 104 % of control | [9] 102 % of control | [6] 93 % of control

CC(=O)NCCc1ccc(NCCCc2c(-c3ccccc3)nc(N)[nH]c2=O)cc1
inactive: [7] 97 % of control | [8] 95 % of control | [9] 101 % of control

O=C(O)c1occ(Cl)c1Cl
inactive: [10] 101 % of control | [11] 105 % of control | [12] 103 % of control | [13] 97 % of control | [14] 91 % of control | dose: 100.0 mg/kg/injection, schedule: Q04DX003 (ip), vehicle: water 102 % of control | [15] 101 % of control | [16] 95 % of control | dose: 200.0 mg/kg/injection, schedule: Q04DX003 (ip), vehicle: water 90 % of control

O=C(Nc1ccccc1Cl)OCCOc1ccccc1
inactive: [13] 97 % of control | [16] 97 % of control | [17] 94 % of control

COC1OC(COS(=O)(=O)c2ccc(C)cc2)C2OC(C)(C)OC12 (stereo not given)
inactive: dose: 50.0 mg/kg/injection, schedule: Q01DX009 (ip), vehicle: Klucel (hydroxypropylcellulose) (HPC) 107 % of control | dose: 50.0 mg/kg/injection, schedule: Q04DX003 (ip), vehicle: Klucel (hydroxypropylcellulose) (HPC) 92 % of control | [13] 95 % of control | [7] 96 % of control | [18] 92 % of control and 94 % of control | [16] 104 % of control | [8] 91 % of control | [19] 92 % of control and 91 % of control | [17] 96 % of control | [9] 91 % of control | [20] 105 % of control and 91 % of control

CS(=O)(=O)OC1C2(c3ccccc3)C=CCC1(c1ccccc1)C(c1ccccc1)=C2c1ccccc1 (stereo not given)
inactive: [21] 98 % of control | [22] 101 % of control | dose: 400.0 mg/kg/injection, schedule: Q01DX001 (ip), vehicle: Klucel (hydroxypropylcellulose) (HPC) 98 % of control

COC1(c2ccc(Br)cc2)OC1(C)C (stereo not given)
inactive: [10] 95 % of control | [11] 101 % of control | [14] 106 % of control | dose: 200.0 mg/kg/injection, schedule: Q01DX009 (ip), vehicle: water 107 % of control | dose: 400.0 mg/kg/injection, schedule: Q01DX009 (ip), vehicle: water 101 % of control

Cc1c(C)c(C)c(CN2CCCC2)c(C)c1C
inactive: dose: 12.5 mg/kg/injection, schedule: Q01DX005 (ip), vehicle: Klucel (hydroxypropylcellulose) (HPC) 107 % of control | dose: 12.5 mg/kg/injection, schedule: Q04DX002 (ip), vehicle: Klucel (hydroxypropylcellulose) (HPC) 109 % of control | dose: 25.0 mg/kg/injection, schedule: Q01DX005 (ip), vehicle: Klucel (hydroxypropylcellulose) (HPC) 97 % of control | [23] 86 % of control | dose: 35.0 mg/kg/injection, schedule: Q01DX009 (ip), vehicle: Klucel (hydroxypropylcellulose) (HPC) 90 % of control | [24] 112 % of control | [25] 94 % of control

O=C1CC(=O)C(Cl)=C1Cl
inactive: dose: 15.0 mg/kg/injection, schedule: Q01DX001 (ip), vehicle: carboxymethylcellulose (CMC) 93 % of control

Cc1ccccc1C(Cc1ccc(N2C(N)=NC(N)=NC2(C)C)cc1)C(=O)Nc1ccc(S(=O)(=O)F)cc1 (stereo not given)
inactive: [18] 98 % of control | [19] 96 % of control | [20] 88 % of control

Cc1cc(N(CCCCl)CCCCl)ccc1C=Nc1cc(Cl)c(O)c(Cl)c1
inactive: [18] 104 % of control | [19] 98 % of control | [20] 101 % of control

CCCCNC(=S)NN=C(N)N
inactive: [1] 96 % of control | [2] 100 % of control | [3] 92 % of control

CC1=CC(=O)C(Sc2ccc(C)cc2)=CC1=O
inactive: dose: 75.0 mg/kg/injection, schedule: Q01DX001 (ip), vehicle: other 98 % of control | dose: 150.0 mg/kg/injection, schedule: Q01DX001 (ip), vehicle: other 93 % of control

COc1ccc(/C=[N+](\[O-])c2ccccc2)cc1
inactive: dose: 50.0 mg/kg/injection, schedule: Q01DX001 (ip), vehicle: saline 110 % of control | [12] 112 % of control | [15] 112 % of control | dose: 400.0 mg/kg/injection, schedule: Q01DX001 (ip), vehicle: saline 118 % of control

O=C(NNS(=O)(=O)c1ccccc1)C1Oc2ccccc2O1
inactive: [23] 96 % of control | [24] 93 % of control | [25] 101 % of control

CCOC(=O)c1ccc(OCCOc2ccc(C(C)(C)CC)cc2)cc1
inactive: [26] 102 % of control | [27] 112 % of control | [28] 108 % of control

CCN(CC)CCN(C)C(=O)C1C(c2ccccc2)C1c1ccccc1 (stereo not given)
inactive: [23] 93 % of control | [24] 105 % of control

O=C1Nc2ccccc2Cc2ccccc21
inactive: dose: 100.0 mg/kg/injection, schedule: Q01DX009 (ip), vehicle: saline with Tween-80 93 % of control | [26] 102 % of control | dose: 200.0 mg/kg/injection, schedule: Q01DX009 (ip), vehicle: saline with Tween-80 92 % of control | [27] 102 % of control | [28] 107 % of control

NC(=O)N/N=C\C=N/NC(N)=O
inactive: [21] 92 % of control | [22] 92 % of control
